Data taken from PMC7643960 (PLoS ONE, 2020).
“And” between values parts separate entries of the source, which are not always exact repeats. Equal entries are not always repeated. “Also recorded” adds a separate entry of the source.

Key:
[1] = tested on: equine malignant melanoma [EMM] cells MelDuWi; assay: SRB assay after 96 h; type: cell-based, horse; conditions: 96 h of drug exposure
Experimental: (§1) Approximately 7.5 × 10^5 cells (MelDuWi) and 1.0 × 10^6 cells (PriFri2 and sRGO2) were seeded in 25 cm^2 cell culture flasks. […] Following 24 and 48 h of incubation, the cells were harvested by mild trypsinization and washed twice with phosphate-buffered saline (PBS) buffer (containing Mg^2+ and Ca^2+). Cells (1.0 × 10^6) were fixed with ethanol (70%, -20°C, for 24 h). After discarding the ethanol, the cells were washed in 1 mL PBS buffer (containing Mg^2+ and Ca^2+) and were centrifuged. The cell pellet was resuspended in 1 mL of staining PBS buffer (containing Mg^2+ and Ca^2+, 10 μg/mL RNASe [Thermofisher] and 15 μg/mL propidium iodide [Sigma-Aldrich, Munich, Germany]) and was incubated for 30 min at room temperature. Analyses were performed using the Attune® FACS machine (Life Technologies, Darmstadt, Germany) collecting data from the BL-2A channel. Doublet cells were excluded from the measurements by plotting BL-2A against BL-2H. A total of 20,000 events were collected for each cell cycle distribution. Each sample was measured in duplicate.
(§2) S1 Appendix. IC50 values measured by SRB Assay after 96 h. […] Measurements were carried out at least as thrice determination.

[2] = tested on: equine dermal fibroblasts PriFi2; assay: SRB assay after 96 h; type: cell-based, horse; conditions: PriFri2, 96 h of drug exposure
Experimental: as §1, §2

[3] = tested on: equine sarcoid [ES] cells sRGO2; assay: SRB assay after 96 h; type: cell-based, horse; conditions: sRGO2, 96 h of drug exposure
Experimental: as §1, §2

[4] = tested on: human carbonic anhydrase isoenzyme II; design: method as in PMID 15664816; conditions: cited from earlier work
[5] = tested on: human carbonic anhydrase isoenzyme I; design: method as in PMID 15664816; conditions: cited from earlier work
[6] = tested on: human carbonic anhydrase isoenzyme IX; design: method as in PMID 15664816; conditions: cited from earlier work
ES cells sRGO2 = assay: AnnexinV-FITC/propidium iodide staining, flow cytometry; type: cell-based, horse; conditions: double IC50 concentration
Experimental: (§3) Approximately 7.5 × 10^5 cells (MelDuWi) and 1.0 × 10^6 cells (PriFri2 and sRGO2) were seeded in 25 cm^2 cell culture flasks. […] Following 24 and 48 h of incubation, cells were harvested by mild trypsinization and washed twice with PBS buffer (containing Mg^2+ and Ca^2+). Cells (1.0 × 10^6) were resuspended in AnnexinV binding buffer (BioLegend®, San Diego, US) to a concentration of 1.0 ‧ 10^6 cells/mL. Approximately 100,000 cells were stained with propidium iodide solution ([…], 1 mg/mL) and FITC AnnexinV solution ([…], BioLegend®) for 15 min in the dark at room temperature. After the addition of Annexin V binding buffer ([…]), the suspension was analyzed using the Attune® FACS machine (Life Technologies). After gating for living cells, the data from detectors BL-1A and BL-3A were collected. A total of 20,000 events were collected from each sample and technical duplicates were measured.

EMM cells MelDuWi [7] = assay: as above; type: cell-based, horse; conditions: double IC50 concentration
Experimental: as §3

[8] = tested on: equine dermal fibroblasts PriFri2; assay: as above; type: cell-based, horse
Experimental: as §3

primary ES cells sRGO2 = assay: MTS cytotoxicity assay; type: cell-based, horse; conditions: for IC50: mean (95% CI)
Experimental: All cells used for the experiments originate from different horses. Primary EMM cells (MelDuWi) and primary equine dermal fibroblasts (PriFi1, PriFi2) belong to the cell culture stock of the Clinic for Horses, University of Veterinary Medicine Hannover, Foundation, Hannover, Germany.
The cytotoxicity of the compounds was assessed by the CellTiter 96® AQueous One Solution Cell Proliferation Assay (MTS) (Promega GmbH, Mannheim, Germany) as reported. In brief, in order to reach cell confluence within 48 h, cells were seeded into 96-well plates in adequate densities (MelDuWi 30,000 cells/well; PriFi1, PriFi2, eRGO1 20,000 cells/well; sRGO1and sRGO2 15,000 cells/well). […] The formazan dye generated by the metabolic active cells was quantified photometrically. Cytotoxicity assays were performed in six to nine biological replicates with two technical replicates for each combination of cell type, incubation time and compound concentration.
Technical duplicates with a coefficient of variation of more than 20% were excluded from the cell assay analysis. […] Additional statistical data analysis was conducted with R 3.5.1.. A generalized additive model was fitted for each test (MTS and CVS) and cell type comparison (primary EMM cells and fibroblasts, and primary ES cells and fibroblasts) using the ‘mgcv’ package. Compound concentrations and the duration of incubation were modeled as tensor product smooth interacting with compound and cell line. Cell passage was added as a random effect. An appropriate distribution was selected by the visual inspection of residuals. The p-values were obtained by performing a Wald test for each parameter. Statistical significance was set at 0.05.

[9] = tested on: normal human umbilical vein endothelial cells, fibroblasts and keratinocytes; conditions: cited from earlier work
mice = conditions: cited from earlier work
EMM cells MelDuWi [10] = conditions: read-out: 96-h IC50 value (sulforhodamine B assay); cited from earlier work
[11] = tested on: different malignancies in five dogs; conditions: cited from earlier work
horses affected by EMM = tested on: horses affected by EMM; design: method as in PMID 26772157; conditions: two EMM patients, once a week for 19 consecutive weeks; cited from earlier work
[12] = PriFri2, 24 h, double IC50 concentration
[13] = PriFri2, 48 h, double IC50 concentration
[14] = equine dermal fibroblasts, 24 h, versus control

In the case of `C=C(C)[C@@H]1CC[C@]2(COS(N)(=O)=O)CC[C@]3(C)[C@H](CC[C@@H]4[C@@]5(C)CC[C@H](OS(N)(=O)=O)C(C)(C)[C@@H]5CC[C@]43C)[C@@H]12` [BBS, (3β)-Lup-20(29)-ene-3,28-diol, 3,28-disulfamate], the IC50 [1] is reported as 14.9 µM, the IC50 [2] is reported as 19.6 µM and the IC50 [3] is reported as 24.3 µM. For the same compound, the “inhibition of carbonic anhydrase II” value [4] was “efficient inhibitor”, the “inhibition of carbonic anhydrase I” value [5] was “efficient inhibitor” and the “inhibition of carbonic anhydrase IX” value [6] was “efficient inhibitor”. For the same compound, the “AnnexinV staining: Living cells” value (ES cells sRGO2; sRGO2, 24 h) was 41,1%, the “AnnexinV staining: early apop” value (ES cells sRGO2; sRGO2, 24 h) was 19,1% and the “AnnexinV staining: late apop” value (ES cells sRGO2; sRGO2, 24 h) was 38,5%. The “AnnexinV staining: necrotic” value (ES cells sRGO2; sRGO2, 24 h) was 1,3%, the “AnnexinV staining: Living cells” value (ES cells sRGO2; sRGO2, 48 h) was 8,7% and the “AnnexinV staining: apoptotic cells (early and late)” value (ES cells sRGO2; sRGO2, 48 h) was “approximately 90%”. The “AnnexinV staining: early apop” value (ES cells sRGO2; sRGO2, 48 h) was 7,5%, the “AnnexinV staining: late apop” value (ES cells sRGO2; sRGO2, 48 h) was 82% and 82.1% and the “AnnexinV staining: necrotic” value (ES cells sRGO2; sRGO2, 48 h) was 1,8%. The “AnnexinV staining: Living cells” value (EMM cells MelDuWi [7]; 24 h) was 77,8%, the “AnnexinV staining: early apop” value (EMM cells MelDuWi [7]; 24 h) was 6,3% and the “AnnexinV staining: late apop” value (EMM cells MelDuWi [7]; 24 h) was 15,4%. For the same compound, the “AnnexinV staining: necrotic” value (EMM cells MelDuWi [7]; 24 h) was 0,6%, the “AnnexinV staining: Living cells” value (EMM cells MelDuWi [7]; 48 h) was 60,6% and the “AnnexinV staining: early apop” value (EMM cells MelDuWi [7]; 48 h) was 7,5%. The “AnnexinV staining: late apop” value (EMM cells MelDuWi [7]; 48 h) was 28.2%, the “AnnexinV staining: necrotic” value (EMM cells MelDuWi [7]; 48 h) was 3,7% and the “AnnexinV staining: Living cells” value [8, 12] was 68,0%. The “AnnexinV staining: early apop” value [8, 12] was 8,0%, the “AnnexinV staining: late apop” value [8, 12] was 22,4% and the “AnnexinV staining: necrotic” value [8, 12] was 1,6%. For the same compound, the “AnnexinV staining: Living cells” value [8, 13] was 33,1%, the “AnnexinV staining: early apop” value [8, 13] was 9,3% and the “AnnexinV staining: late apop” value [8, 13] was 54% and 53.6%. For the same compound, the “AnnexinV staining: necrotic” value [8, 13] was 4,1%, the “increase of early apoptotic cells” value [8, 14] was 5% and the “increase of late apoptotic cells” value [8, 14] was 3%. The IC50 (primary ES cells sRGO2; sRGO2, 5 h) was greater than 100 µM, the IC50 (primary ES cells sRGO2; sRGO2, 24 h) was 45 µM and the IC50 (primary ES cells sRGO2; sRGO2, 48 h) was 28 µM.
With `C=C(C)[C@@H]1CC[C@]2(C(=O)OCC(N)(CO)CO)CC[C@]3(C)[C@H](CC[C@@H]4[C@@]5(C)CC[C@H](OC(C)=O)C(C)(C)[C@@H]5CC[C@]43C)[C@@H]12` [NVX-207, 3-acetyl-betulinic acid-2-amino-3-hydroxy-2-hydroxymethyl-propanoate] the IC50 [1] was 3.7 µM, the IC50 [2] was 3.8 µM and the IC50 [3] was 3.1 µM. The “impact on in vitro survival of normal cells” value [9] was “little impact”, the “side effects after intravenous application” value (mice) was “did not lead to any side effects” and the “AnnexinV staining: Living cells” value (ES cells sRGO2; sRGO2, 24 h) was 76,6%. The “AnnexinV staining: early apop” value (ES cells sRGO2; sRGO2, 24 h) was 3,7%, the “AnnexinV staining: late apop” value (ES cells sRGO2; sRGO2, 24 h) was 19,1% and the “AnnexinV staining: necrotic” value (ES cells sRGO2; sRGO2, 24 h) was 0,5%. For the same compound, the “AnnexinV staining: Living cells” value (ES cells sRGO2; sRGO2, 48 h) was 38,5%, the “AnnexinV staining: apoptotic cells (early and late)” value (ES cells sRGO2; sRGO2, 48 h) was “about 60%” and the “AnnexinV staining: early apop” value (ES cells sRGO2; sRGO2, 48 h) was 12,5%. The “AnnexinV staining: late apop” value (ES cells sRGO2; sRGO2, 48 h) was 47,9%, the “AnnexinV staining: Living cells” value (EMM cells MelDuWi [7]; 24 h) was 48,9% and the “AnnexinV staining: early apop” value (EMM cells MelDuWi [7]; 24 h) was 20,0%. For the same compound, the “AnnexinV staining: late apop” value (EMM cells MelDuWi [7]; 24 h) was 30,8%, the “AnnexinV staining: necrotic” value (EMM cells MelDuWi [7]; 24 h) was 0,3% and the “AnnexinV staining: Living cells” value (EMM cells MelDuWi [7]; 48 h) was 29,8%. For the same compound, the “AnnexinV staining: early apop” value (EMM cells MelDuWi [7]; 48 h) was 24,3%, the “AnnexinV staining: late apop” value (EMM cells MelDuWi [7]; 48 h) was 45% and 44.8% and the “AnnexinV staining: apoptotic cells” value ([8]; PriFi2, 48 h, double IC50 concentration) was “about 85%”. The “AnnexinV staining: Living cells” value [8, 12] was 50,0%, the “AnnexinV staining: early apop” value [8, 12] was 10,2% and the “AnnexinV staining: late apop” value [8, 12] was 37,6%. For the same compound, the “AnnexinV staining: necrotic” value [8, 12] was 2,2%, the “AnnexinV staining: Living cells” value [8, 13] was 12,3% and the “AnnexinV staining: early apop” value [8, 13] was 17,9%. The “AnnexinV staining: late apop” value [8, 13] was 67,1%, the IC50 (EMM cells MelDuWi [10]) was 5.6 µM and the “tolerability of intralesional treatment” value [11] was “well tolerated”. For the same compound, the “tumor response to intralesional treatment” value [11] was “clinically beneficial tumor response was observed”, the “safety of intralesional injection” value (horses affected by EMM) was “proved to be safe; also recorded: well tolerated” and the IC50 (primary ES cells sRGO2; sRGO2, 5 h) was 8 µM. The IC50 (primary ES cells sRGO2; sRGO2, 24 h) was 3 µM, the IC50 (primary ES cells sRGO2; sRGO2, 48 h) was 1 µM and the “times more cytotoxic than BBS” value (primary ES cells sRGO2; sRGO2, after 48 h, MTS) was “about 25 times”.
